Source: article PMC10545747, “Development of cyclopeptide inhibitors of cGAS targeting protein-DNA interaction and phase separation” (Nature Communications, 2023)
Where “and” joins values, the source holds several entries; their conditions need not be identical. Equal entries are not always repeated. Square brackets hold non-standard residues; d marks the D form. Peptide text beside a SMILES is read from it.

How the values were obtained:
[1] = test system: murine fibroblast L929 cells; experiment: qPCR of Ifnb1/Cxcl10 mRNA in L929 cells (ISD or HSV-1); assay type: cell-based, mouse; design: key to Ifnb1 mRNA (Fig. S2c) / Cxcl10 mRNA (Fig. S2c) / Ifnb1 mRNA (Fig. S2d) / Cxcl10 mRNA (Fig. S2d): mRNA level normalized to GAPDH (relative expression)
Procedure: The indicated cells were stimulated with either ISD (Sangon Biotech), HSV-1 (Provided by Dr. Zhengfan Jiang), HSV60mer (Sangon Biotech), SATE-cddA[70], 2’3’-cGAMP (Invivogen, Cat# tlrl-nacga23-1), ADU-S100 (MedChemExpress, Cat# HY-12885A) or Poly(I:C) (Invivogen, Cat# tlrl-pic) after XQ2 or XQ2B treatment. Total RNA was isolated from indicated cells that incubated with the drugs for indicated time or mice tissues by using NucleoZOL reagent (MACHEREY-NAGEL) according to the manufacturer’s instructions. The quantifications of mRNA levels were carried out by real-time PCR using a PerfectStart® Uni RT&qPCR Kit (TransGen Biotech) on the QuantStudio 5 qPCR machine (Applied Biosystems). Samples were carried out in triplicate and the target CT values were normalized to GAPDH CT values. Primers of qPCR used in this study can be found in Supplementary Table S2. […]
(c) L929, p = 0.0005 (Ifnb1),
BMDMs, p = 0.0001 (Ifnb1), p < 0.0001 (Cxcl10).
representative of three independent experiments in (a-g). (Data are presented as mean ± SD, n = 3 independent
Source data are provided as a Source Data file.

hcGAS-FL + FAM-ISD = hcGAS-FL + FAM-ISD (Homo sapiens, UniProt Q8N884); experiment: biochemical
Procedure: Purified hcGAS-FL (300 nM) or hcGAS-FL (D191R) (300 nM) and FAM-labeled DNA (FAM-ISD) (40 nM) were incubated with or without XQ2 in buffer (20 mM HEPSE, pH 7.5, 125 mM KCl, 10 mM MgCl2). Samples were dispensed in 30 μ L final volumes per well into a 384-well flat-bottom black plate (Corning 3575). The polarization was detected by a microplate reader (BioTek Synergy H1) with a fluorescence polarization filter cube (excitation wavelength: 485 ± 10 nm; emission wavelength: 528 ± 10 nm) immediately.

Hela cells = experiment: Immunofluorescence of IRF3 and p-IRF3 after HSV-1; assay type: cell-based, human
Procedure: Hela cells were treated as described for the indicated time and then fixed with 4% paraformaldehyde for 25 min, permeabilized with 0.25% Triton X-100 for 10 min, and blocked in 1% BSA for 1 h at 37 °C. Then, cells were incubated with indicated primary antibodies overnight at 4 °C, and followed by incubating with donkey anti-rabbit IgG Alexa Fluor 488-labeled secondary antibodies (Abcam, Cat# ab150073, 1:200) for 1 h at 37 °C. The nuclei were counterstained with DAPI (Sigma-Aldrich) before the images were acquired using a Nikon A1R+ confocal microscope.

Trex1^-/- BMDMs = experiment: qPCR of Ifnb1, Cxcl10, Il6 mRNA in Trex1-deficient macrophages; assay type: cell-based, mouse; design: key to Ifnb1 mRNA level (Fig. 7a) / Cxcl10 mRNA level (Fig. 7a) / Il6 mRNA level (Fig. 7a): fold change relative to WT BMDM group
Procedure: Fold changes are relative to WT BMDM group. p = 0.002 (Ifnb1); p = 0.008 (Cxcl10); p = 0.0005 (Il6). b Schematic representation illustrating the experimental design in the Trex1^-/- mice model of autoimmune diseases. c Survival curves of WT and Trex1^−/− mice treated with DMSO or XQ2B (10 mg/kg) every other day for 11 consecutive days (n = 10 mice per group). p = 0.0352. d WT mice (n = 6) or Trex1^-/- mice (n = 6) were injected intravenously with DMSO or 10 mg/kg XQ2B every other day for 7 consecutive days. Representative H&E-stained tissue sections from WT or Trex1^-/- mice treated with DMSO or XQ2B. The panels are at ×20 magnification. […] Scale bar, 50 μm. Data are representative of two independent experiments with similar results in (f), or three independent experiments in (a) or two independent experiments in (d, e). […] Source data are provided as a Source Data file.
The indicated cells were stimulated with either ISD (Sangon Biotech), HSV-1 (Provided by Dr. Zhengfan Jiang), HSV60mer (Sangon Biotech), SATE-cddA[70], 2’3’-cGAMP (Invivogen, Cat# tlrl-nacga23-1), ADU-S100 (MedChemExpress, Cat# HY-12885A) or Poly(I:C) (Invivogen, Cat# tlrl-pic) after XQ2 or XQ2B treatment. Total RNA was isolated from indicated cells that incubated with the drugs for indicated time or mice tissues by using NucleoZOL reagent (MACHEREY-NAGEL) according to the manufacturer’s instructions. The quantifications of mRNA levels were carried out by real-time PCR using a PerfectStart® Uni RT&qPCR Kit (TransGen Biotech) on the QuantStudio 5 qPCR machine (Applied Biosystems). Samples were carried out in triplicate and the target CT values were normalized to GAPDH CT values. Primers of qPCR used in this study can be found in Supplementary Table S2.
C57BL/6 6–8 weeks old wild type (WT) mice were purchased from Gempharmatech. C57BL/6 Trex1^+/- mice were purchased from Cyagen. Trex1^-/- mice were generated by further mating the male and female Trex1^+/- mice, and 8-week-old male Trex1^-/- mice were used in the experiment. Mice were housed in groups of up to 5 mice/cage at 18 °C − 24 °C ambient temperatures with 40–60% humidity. Mice were maintained on a 12 h light/ dark cycle 6 am to 6 pm. Food and water were available ad libitum. Femurs and tibias were removed from sex-matched mice of 6–8 weeks old, and the ends were clipped. Marrow was pushed from bones by using a syringe, and cell clumps were broken apart into cell particles by pipetting in PBS, and passed through a 70 μm cell strainer. Cells were resuspended in red blood cell lysis buffer (Solarbio) for 5 min after being centrifuged with 200 × g for 5 min, and were resuspended in cell culture media (DMEM) with an additional M-CSF (50 ng/ml) after centrifugation, and then were seeded into a 12-well plate. […]

Sequence of hcGAS-FL + FAM-ISD (Q8N884 whole entry): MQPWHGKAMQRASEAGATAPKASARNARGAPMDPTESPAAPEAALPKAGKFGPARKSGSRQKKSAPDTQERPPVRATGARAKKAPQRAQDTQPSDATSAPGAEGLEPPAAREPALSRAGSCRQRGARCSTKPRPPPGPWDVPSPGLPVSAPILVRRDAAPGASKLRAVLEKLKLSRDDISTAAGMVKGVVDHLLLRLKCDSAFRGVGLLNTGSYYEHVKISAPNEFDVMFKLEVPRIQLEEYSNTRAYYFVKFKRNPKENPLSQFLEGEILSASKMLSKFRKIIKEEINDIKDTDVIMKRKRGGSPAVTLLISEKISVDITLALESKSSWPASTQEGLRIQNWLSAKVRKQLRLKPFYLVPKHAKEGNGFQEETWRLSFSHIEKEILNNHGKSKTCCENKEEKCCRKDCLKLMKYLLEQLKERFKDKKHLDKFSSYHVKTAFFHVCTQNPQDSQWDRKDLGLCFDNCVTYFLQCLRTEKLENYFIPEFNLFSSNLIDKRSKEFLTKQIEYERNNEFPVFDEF

Row | SMILES | Ifnb1 and Cxcl10 expression induced by ISD and HSV-1 ([1]; L929, 10 μM) | Cxcl10 mRNA (Fig. S2d) ([1]; L929, HSV-1+XQ2) | Ifnb1 mRNA (Fig. S2d) ([1]; L929, HSV-1+XQ2) | Cxcl10 mRNA (Fig. S2c) ([1]; L929, ISD+XQ2) | Ifnb1 mRNA (Fig. S2c) ([1]; L929, ISD+XQ2) | Cxcl10 mRNA (Fig. S2c) ([1]; L929, XQ2 alone) | Cxcl10 mRNA (Fig. S2d) ([1]; L929, XQ2 alone) | Ifnb1 mRNA (Fig. S2c) ([1]; L929, XQ2 alone) | Ifnb1 mRNA (Fig. S2d) ([1]; L929, XQ2 alone) | IC50 (hcGAS-FL + FAM-ISD) | quantification of cells with nuclear IRF3, Fig. 2f (Hela cells; HSV-1 6 h, 10 μM) | quantification of cells with p-IRF3, Fig. 2g (Hela cells; HSV-1 6 h, 10 μM) | nuclear translocation and phosphorylation of IRF-3, immunofluorescence (Hela cells; HSV-1, 10 μM) | expression of Ifnb1, Cxcl10 and Il6 in Trex1^-/- BMDMs (Trex1^-/- BMDMs; 10 μM, 24 h) | Cxcl10 mRNA level (Fig. 7a) (Trex1^-/- BMDMs; Trex1-/- BMDMs, XQ2B vs DMSO) | Ifnb1 mRNA level (Fig. 7a) (Trex1^-/- BMDMs; Trex1-/- BMDMs, XQ2B vs DMSO) | Il6 mRNA level (Fig. 7a) (Trex1^-/- BMDMs; Trex1-/- BMDMs, XQ2B vs DMSO)
1 | CC(C)C[C@@H]1NC(=O)[C@H](CCCNC(=N)N)NC(=O)[C@H](C(C)C)NC(=O)[C@@H]2CCCN2C(=O)[C@@H](Cc2ccccc2)NC(=O)[C@H](CC(C)C)NC(=O)[C@H](CCCNC(=N)N)NC(=O)[C@H](C(C)C)NC(=O)[C@H](C)NC(=O)[C@@H](Cc2ccccc2)NC1=O [XQ2, Cyclo (LfAVRLfPVR)] (cyclo(L[dF]AVRL[dF]PVR)) | significantly inhibited the expression of Ifnb1 and its downstream gene Cxcl10 | 14.7732 and 16.7433 and 18.5165 | 2.433 and 2.873 and 2.57 | 490.131 and 497.538 and 429.114 | 47.632 and 43.4073 and 39.6029 | 1.1537 and 1.297 and 1.725 | 1.1537 and 1.297 and 1.725 | 1.659 and 1.773 and 1.653 | 1.659 and 1.773 and 1.653 | 19.2 ± 6.7 µM | 5.1642 and 6.6102 and 7.0558 | 0.5674 and 0.8706 and 1.039 | significantly inhibited the nuclear translocation and phosphorylation of IRF-3 triggered by HSV-1 | – | – | – | –
2 | CC(C)C[C@@H]1NC(=O)[C@H](CCCNC(=N)N)NC(=O)[C@H](C(C)C)NC(=O)[C@@H]2CCCN2C(=O)[C@@H](Cc2ccccc2)NC(=O)[C@H](CC(C)C)NC(=O)[C@H](CCCNC(=N)N)NC(=O)[C@H]([C@@H](C)O)NC(=O)[C@H](C)NC(=O)[C@@H](Cc2ccccc2)NC1=O [XQ2B] (cyclo([dF]ATRL[dF]PVRL)) | – | – | – | – | – | – | – | – | – | – | – | – | – | significantly suppressed the expression of Ifnb1, Cxcl10 and Il6 in Trex1^-/- BMDMs | 8.243 and 7.282 and 8.602 | 2.99 and 2.308 and 2.77 | 7.711 and 7.588 and 8.111
